In patent US9821002B2, “Method for alleviating radiation injury with isorhamnetin-3-O-β-D-glucoside” (Sinotai Oncology Associate., Ltd., priority 2015, dated 2017):

What was measured:
[1] = tested on: cleaved caspase-9 in NMuMG cells; test: Expression profile of cleaved caspase-9 (Western Blotting) after X-ray irradiation; format: cell-based, mouse; details: 15 and 30 μM, 2 h pretreatment, X-ray 15 Gy, 48 hours, normalized to β-actin
Excerpt: (§1) Four groups of BNL CL.2 cells (i.e., a normal control group referred to as Normal Control Group 1-A, an X-ray control group referred to as X-Ray Control Group 1-A, and two experimental groups referred to as Experimental Groups 1-A to 2-A), and six groups of NMuMG cells (i.e., a normal control group referred to as Normal Control Group 1-B, an X-ray control group referred to as X-Ray Control Group 1-B, two isorhamnetin groups referred to as Isorhamnetin Groups 1 to 2, and two experimental groups referred to as Experimental Groups 1-B to 2-B), were prepared based on the procedure set forth in “Source and cultivation of cell lines” of “Experimental materials”. BNL CL.2 cells in each group were cultivated using 5 mL of a corresponding medium shown in Table 1 and a 6-cm Petri dish in an amount of 2×10^5 cells per dish. […]
(§2) Subsequently, the culture in each group was cultivated in an incubator (37° C., 5% CO2) for 48 hours, and 120 μL of lysis buffer containing CelLytic™ M protein extraction reagent (Sigma-Aldrich) and proteinase inhibitor cocktail (Sigma-Aldrich) was added to the culture in each group, followed by mixing evenly. […] Protein concentration in the total protein sample was determined by means of the Bio-Rad Protein Assay Kit. […]
(§3) Subsequently, ImageScanner Imaging Software was used for analysis, such that the corresponding protein expression level was semi-quantitatively calculated. […]

[2] = tested on: cleaved caspase-9 in BNL CL.2 cells; test: as above; format: cell-based, mouse; details: 5 and 30 μM, 2 h pretreatment, X-ray 15 Gy, 48 hours, normalized to β-actin
Excerpt: as §1, §2, §3

COc1cc(-c2oc3cc(O)cc(O)c3c(=O)c2O[C@@H]2O[C@H](CO)[C@@H](O)[C@H](O)[C@H]2O)ccc1O [isorhamnetin-3-O-β-D-glucoside]
expression level of cleaved caspase-9 versus X-ray control group [1]: significant reduction in expression level of cleaved caspase-9 | expression level of cleaved caspase-9 versus X-ray control group [2]: significant reduction in expression level of cleaved caspase-9
